Assay results published in patent US20160375050A1, “METHODS AND COMPOSITIONS INVOLVING CHITOSAN NANOPARTICLES” (The Board of Regents of the University of Texas System, priority 2007, published 2016).

Experiments:
[1] = tested on: EZH2 promoter in EAhy926 endothelial cell line; assay: EZH2 promoter luciferase reporter assay; format: cell-based, human; settings: EAhy926, 6 hours, EGF 25 ng/mL, VEGF 50 ng/mL
Procedure: Relative activity of the EZH2 promoter in the EAhy926 cell line was determined by luciferase reporter assay. Cells were transfected in low-serum medium (0.5% serum) with the firefly luciferase plasmid, either empty vector (pGL3-Basic) or the EZH2 promoter construct vector (EZH2prom-pGL3-Basic), in 12-well plates using Effectene® Transfection Reagent from Qiagen (Valencia, Calif.). Cells were then maintained in low-serum medium for 18 hours, washed in warm 1× phosphate-buffered saline (PBS), and treated in triplicate at 37° C. for 6 hours. Treatments included recombinant human (rh) EGF (EGF; 25 ng/mL; Invitrogen) and rhVEGF165 (VEGF; 50 ng/mL; Peprotech, Rocky Hill, N.J.), each in fresh medium plus 0.5% serum, fresh complete medium plus 10% serum, and conditioned media from immortalized ovarian surface epithelium (105E120) and from papillary serous ovarian cancer cell lines (OVCA420 and SKOV3). Medium in control wells (pGL3-Basic transfectants) was not changed on the day of treatment. Following treatment, cells were washed briefly in cold 1×PBS and lysates were collected and processed using the Dual-Luciferase® Reporter Assay System (Promega Corp.). Firefly luciferase readings were averaged and normalized to pGL3-Basic control readings for percent fold changes.

[2] = tested on: VASH1 mRNA in MOEC; assay: VASH1 mRNA after EZH2 gene silencing, real-time qRT-PCR; format: cell-based, mouse; settings: 72 hours after transfection
Procedure: Relative expression of EZH2 and VASH1 mRNA in HUVEC and MOEC cells was determined by real-time quantitative RT-PCR. Cells were seeded at 1.0×10^4 cells per well in 96-well plates in complete medium and incubated at 37° C. for 24 hours, and then in low-serum medium (0.5% serum) for 18 hours, minus EGF and VEGF supplements where appropriate. After washing with warm PBS, cells were treated in triplicate at 37° C. for six hours with EGF (25 ng/mL) and VEGF (50 ng/mL), each in fresh medium (lacking supplemental EGF or VEGF) with no serum, fresh complete medium plus 2% serum, and conditioned media. Relative expression of VASH1 mRNA in MOEC cells was determined by transfecting cells with EZH2 mouse siRNA. Samples were collected after 72 hours of transfection. Real-time quantitative RT-PCR was performed using 50 ng total RNA isolated from treated cells using the RNeasy Mini Kit (Qiagen). Relative expression values were obtained using the average of three reference genes and the 2^−ΔΔCT method as described previously, and normalized to control for percent fold changes (Donninger et al., 2004).

| Substance | EZH2 promoter activity [1] | increase in VASH1 mRNA compared to control siRNA treated cells [2] [fold] |
| --- | --- | --- |
| VEGF | significant increase | – |
| EGF: recombinant human EGF, Invitrogen (NSDSECPLSHDGYCLHDGVCMYIEALDKYACNCVVGYIGERCQYRDLKWWELR; Epidermal growth factor; UniProt P01133 971-1023, looked up) | significant increase | – |
| mouse EZH2 siRNA: Murine EZH2 siRNA, target 5′-GCACAAGTCATCCCGTTAATT-3′ (SEQ ID NO: 15), transfected in vitro (target site or template, no part of the molecule; listed as DNA, chemistry not given here) | – | 2.8 |
